Test results reported in patent publication US20040002545A1, “Thiazole derivatives of 2-methoxyimino-2-(pyridinyloxymethyl)-phenyl-acetamides useful as fungicides” (priority 2003, published 2004).

How the values were obtained:
Format in all cases: in vivo
Septoria tritici—SEPTTR = experiment: Wheat leaf blotch greenhouse test, curative and protectant; parameters: scale not given here; conditions: for SEPTTR 3DC: 3DC (curative); for SEPTTR 7DP: 7DP (protectant)
From the text: (§1) Pathogen propagation and host inoculation. Plants were inoculated with various pathogens 1-4 days before compound application (curative tests) and 1-7 days after compound application (protectant tests). For all wheat trials, compounds were applied at growth stage 1.2, when the second leaf was expanded to about ½ of its final size (12 days after seeds were first watered). Information on the growth stages of other plant species at the time compound application and on the propagation and inoculation procedures associated with each pathogen is given below.
SEPTTR: Fresh inoculum is prepared in a manner similar to that described for LEPTNO. In this case, a brownish layer of spores covers the entire surface of the PDA plate and only a few plates are needed to obtain a large number of spores. After incubation overnight in the 20° C. dew chamber, inoculated plants were continually misted for 3 days in a 20° C. greenhouse, then grown at 20° C. without mist until disease symptoms had fully developed (usually about 10 days).
(§2) LEPTNO: Fresh inoculum was prepared by streaking PDA plates with spore exudates from an older plate using a sterile spatula. The plates were incubated at 18° C. under black lights and typically produced large quantities of spores in pink exudate in 6-7 days. A small amount of tap water was poured onto several plates and spores were collected by scraping the exudates off the PDA surface into the water. The spore solutions were combined in a large beaker, diluted with 200-300 ml of water and filtered through a 180 u mesh screen. The spore concentration was determined using a hemacytometer and water was added to obtain a final concentration of 10^7 spores/ml. Approximately 3 large drops of Tween 20 were added for each 100 ml of volume and the spore solution was sprayed to run-off on wheat seedlings. Inoculated plants were placed in a 20° C. dew chamber overnight, then moved to a 20° C. greenhouse where they were continually misted (12 seconds of mist every minute) until disease symptoms were fully developed (8-10 days).

[1] = test system: Puccinia recondita—PUCCRT; experiment: Wheat brown rust greenhouse test, curative and protectant; conditions: for PUCCRT 3DC: 3DC (curative); for PUCCRT 7DP: 7DP (protectant)
From the text: as §1
PUCCRT: Spores of the obligate pathogen PUCCRT were collected from infected plants with a vacuum apparatus and stored at 4° C. Approximately 0.1 g of fresh spores (stored at 4° C. for less than 30 days) was mixed with several drops of Tween 20. The thick spore paste was diluted to 100 ml with water and sprayed to run-off on wheat seed seedlings. Plants inoculated with PUCCRT were kept in a 20° C. dew chamber overnight and then transferred to a 20° C. growth chamber where symptoms developed in 8-9 days.

Septoria nodorum—LEPTNO = experiment: Wheat glume blotch greenhouse test, curative and protectant; parameters: scale not given here; conditions: for LEPTNO 3DC: 3DC (curative); for LEPTNO 7DP: 7DP (protectant)
From the text: as §1, §2

Erysiphe graminis—ERYSGT = experiment: Wheat powdery mildew greenhouse test, curative and protectant; parameters: scale not given here; conditions: for ERYSGT 3DC: 3DC (curative); for ERYSGT 7DP: 7DP (protectant)
From the text: as §1
ERYSGT: Wheat seedlings were infected with fresh spores from the obligate pathogen ERYSGT by shaking heavily infected wheat plants over them. Plants that had been dusted with ERYSGT spores were incubated in the greenhouse at 22° C. until disease symptoms had fully developed (usually 7 days).

| Compound | SEPTTR 3DC (Septoria tritici—SEPTTR; rate 15.5 g ai/ha) | SEPTTR 7DP (Septoria tritici—SEPTTR; rate 15.5 g ai/ha) | SEPTTR 3DC (Septoria tritici—SEPTTR; rate 31.3 g ai/ha) | SEPTTR 7DP (Septoria tritici—SEPTTR; rate 31.3 g ai/ha) | SEPTTR 3DC (Septoria tritici—SEPTTR; rate 62.5 g ai/ha) | SEPTTR 7DP (Septoria tritici—SEPTTR; rate 62.5 g ai/ha) | SEPTTR 3DC (Septoria tritici—SEPTTR; rate 125 g ai/ha) | SEPTTR 7DP (Septoria tritici—SEPTTR; rate 125 g ai/ha) | PUCCRT 3DC ([1]; rate 15.5 g ai/ha) | PUCCRT 7DP ([1]; rate 15.5 g ai/ha) | PUCCRT 3DC ([1]; rate 31.3 g ai/ha) | PUCCRT 7DP ([1]; rate 31.3 g ai/ha) | PUCCRT 3DC ([1]; rate 62.5 g ai/ha) | PUCCRT 7DP ([1]; rate 62.5 g ai/ha) | PUCCRT 3DC ([1]; rate 125 g ai/ha) | PUCCRT 7DP ([1]; rate 125 g ai/ha) | LEPTNO 3DC (Septoria nodorum—LEPTNO; rate 15.5 g ai/ha) | LEPTNO 7DP (Septoria nodorum—LEPTNO; rate 15.5 g ai/ha) | LEPTNO 3DC (Septoria nodorum—LEPTNO; rate 31.3 g ai/ha) | LEPTNO 7DP (Septoria nodorum—LEPTNO; rate 31.3 g ai/ha) | also measured |
| --- | --- | --- | --- | --- | --- | --- | --- | --- | --- | --- | --- | --- | --- | --- | --- | --- | --- | --- | --- | --- | --- |
| 2-[[[3-chloro-5-[5-[3-methylisothiazoly]]-2-pyridinyl]-oxy]methyl]-alpha-(methoxyimino)-N-methylbenzeneacetamide [Compound 1] | 22 | 53 | 59 | 88 | 85 | 76 | 99 | 91 | 93 | 80 | 99 | 94 | 100 | 100 | 100 | 100 | 58 | 46 | 60 | 50 | LEPTNO 3DC (Septoria nodorum—LEPTNO; rate 62.5 g ai/ha): 53; LEPTNO 7DP (Septoria nodorum—LEPTNO; rate 62.5 g ai/ha): 95; LEPTNO 3DC (Septoria nodorum—LEPTNO; rate 125 g ai/ha): 71; LEPTNO 7DP (Septoria nodorum—LEPTNO; rate 125 g ai/ha): 98; ERYSGT 3DC (Erysiphe graminis—ERYSGT; rate 15.5 g ai/ha): 88; ERYSGT 7DP (Erysiphe graminis—ERYSGT; rate 15.5 g ai/ha): 51; ERYSGT 3DC (Erysiphe graminis—ERYSGT; rate 31.3 g ai/ha): 92; ERYSGT 7DP (Erysiphe graminis—ERYSGT; rate 31.3 g ai/ha): 45; ERYSGT 3DC (Erysiphe graminis—ERYSGT; rate 62.5 g ai/ha): 94; ERYSGT 7DP (Erysiphe graminis—ERYSGT; rate 62.5 g ai/ha): 88; ERYSGT 3DC (Erysiphe graminis—ERYSGT; rate 125 g ai/ha): 97; ERYSGT 7DP (Erysiphe graminis—ERYSGT; rate 125 g ai/ha): 100 |
| CNC(=O)C(=NOC)c1ccccc1COc1ncc(-c2snc(C)c2Br)cc1C [Compound 2, 2-[[[3-methyl-5-[5-[4-bromo-3-methylisothiazolyl]]-2-pyridinyl]-oxy]methyl]-alpha-(methoxyimino)-N-methylbenzeneacetamide] | 97 | 85 | 83 | 85 | 90 | 96 | 95 | 97 | 50 | 100 | 63 | 100 | 93 | 100 | 93 | 100 | 65 | 65 | 73 | 79 | LEPTNO 3DC (Septoria nodorum—LEPTNO; rate 62.5 g ai/ha): 47; LEPTNO 7DP (Septoria nodorum—LEPTNO; rate 62.5 g ai/ha): 84; LEPTNO 3DC (Septoria nodorum—LEPTNO; rate 125 g ai/ha): 67; LEPTNO 7DP (Septoria nodorum—LEPTNO; rate 125 g ai/ha): 98 |
